Results reported in the supplement of paper PMC11208160.

Assay: recombinant UMI read abundance after kanamycin selection (control-corrected) (log10(CPM+1)); higher = more efficient recombination; extreme values may be limits of the assay; sequences stand for … in AGTGCAGAGAAAATCGGCCAGTTTTCTCTGCCTGCAGTCCGCATGCCGTGGGACCCCTTGGGTTCTAACCTGTTGCCTAGATTTATGCAGCGGACTGCCTTTCTCCCAAAGTGATAAACCGG…AGGTTGGTTTCACT; site = the 11-nt donor
Procedure, shortened: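 Values, expressed as log10(CPM+1), derive from recombinant UMI counts converted to CPM, averaged across replicates and scaled by control-derived factors. Plating was with IPTG (0.07 mM) plus kanamycin or unselected, two replicates each. The screen pooled donor and donor-binding-loop pairs for the IS621 bridge recombinase in Escherichia coli.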
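Note: IS621 bridge recombinase in Escherichia coli cells against a fixed T5 target plasmid.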

Sequence	recombinant UMI read abundance (log10)
GGCAGGCCATGGACCGGTTTTCCCGGTAATCCGTATTTGCT (site GGCAGGCCTAG)	0.861
GGCATGACATGGACCGGTTTTCCCGGTAATCCGTATTTGCC (site GGCATGACTGG)	0
GGCCACACATGGACCGGTTTTCCCGGTAATCCGTATTTGTT (site GGCCACACTAA)	0.485
GGCCACACATGGACCGGTTTTCCCGGTAATCCGTATTTGTT (site GGCCACCCTAA)	0.035
GGCCACACATGGACCGGTTTTCCCGGTAATCCGTATTTGTT (site GGCCACGCTAA)	0.0159
GGCCACACATGGACCGGTTTTCCCGGTAATCCGTATTTGTT (site GGCCACTCTAA)	0.00795
GGCCACCCATGGACCGGTTTTCCCGGTAATCCGTATTTGAT (site GGCCACCCTAA)	0.0182
GGCCACCCATGGACCGGTTTTCCCGGTAATCCGTATTTGAT (site GGCCACCCTAC)	0.00622
GGCCACCCATGGACCGGTTTTCCCGGTAATCCGTATTTGAT (site GGCCACCCTAG)	0
GGCCACCCATGGACCGGTTTTCCCGGTAATCCGTATTTGAT (site GGCCACCCTAT)	0
GGCCAGCCATGGACCGGTTTTCCCGGTAATCCGTATTTGTA (site GGCCAGCCTTA)	0.0264
GGCCGATCATGGACCGGTTTTCCCGGTAATCCGTATTTGCG (site GGCCGATCTCG)	1.88
GGCCGATCATGGACCGGTTTTCCCGGTAATCCGTATTTGTC (site GGCCGATCTGA)	0.695
GGCCGTGCATGGACCGGTTTTCCCGGTAATCCGTATTTGCC (site GGCCGTGCTGG)	1.16
GGCCTCCCATGGACCGGTTTTCCCGGTAATCCGTATTTGTT (site GGCCACCCTAA)	0.0137
GGCCTCCCATGGACCGGTTTTCCCGGTAATCCGTATTTGTT (site GGCCCCCCTAA)	0
GGCCTCCCATGGACCGGTTTTCCCGGTAATCCGTATTTGTT (site GGCCGCCCTAA)	0.0206
GGCCTCCCATGGACCGGTTTTCCCGGTAATCCGTATTTGTT (site GGCCTCCCTAA)	0.00625
GGCGAACCATGGACCGGTTTTCCCGGTAATCCGTATTTGAC (site GGCGAACCTGT)	0
GGCGAACCATGGACCGGTTTTCCCGGTAATCCGTATTTGGG (site GGCGAACCTCC)	0
GGCGACCCATGGACCGGTTTTCCCGGTAATCCGTATTTGTT (site GGCAACCCTAA)	0
GGCGACCCATGGACCGGTTTTCCCGGTAATCCGTATTTGTT (site GGCCACCCTAA)	0.0153
GGCGACCCATGGACCGGTTTTCCCGGTAATCCGTATTTGTT (site GGCGACCCTAA)	0.263
GGCGACCCATGGACCGGTTTTCCCGGTAATCCGTATTTGTT (site GGCTACCCTAA)	0.0186
GGCGAGGCATGGACCGGTTTTCCCGGTAATCCGTATTTGTC (site GGCGAGGCTGA)	2.23

Sequence	recombinant UMI read abundance (log10)
GGCGATACATGGACCGGTTTTCCCGGTAATCCGTATTTGTT (site GGCGATACTAA)	1.81
GGCGCACCATGGACCGGTTTTCCCGGTAATCCGTATTTGCA (site GGAGCACCTTG)	0
GGCGCACCATGGACCGGTTTTCCCGGTAATCCGTATTTGCA (site GGCGCACCTTG)	0
GGCGCACCATGGACCGGTTTTCCCGGTAATCCGTATTTGCA (site GGGGCACCTTG)	0
GGCGCACCATGGACCGGTTTTCCCGGTAATCCGTATTTGCA (site GGTGCACCTTG)	0.00254
GGCGCAGCATGGACCGGTTTTCCCGGTAATCCGTATTTGTT (site GGCGCAGCTAA)	0.794
GGCTAATCATGGACCGGTTTTCCCGGTAATCCGTATTTGAT (site GGCTAATCTAT)	0.935
GGCTACTCATGGACCGGTTTTCCCGGTAATCCGTATTTGCT (site GGCTACTCTAG)	2.43
GGCTCTACATGGACCGGTTTTCCCGGTAATCCGTATTTGGT (site GGCTCTACTAC)	0
GGCTTGGCATGGACCGGTTTTCCCGGTAATCCGTATTTGGT (site GGCTTGGCTAC)	0.216
GGGAATACATGGACCGGTTTTCCCGGTAATCCGTATTTGCA (site AGGAAGACTTG)	0
GGGAATACATGGACCGGTTTTCCCGGTAATCCGTATTTGCA (site GGGAATACTTG)	1.37
GGGAATACATGGACCGGTTTTCCCGGTAATCCGTATTTGTT (site CGGAATCCTAA)	0
GGGAATACATGGACCGGTTTTCCCGGTAATCCGTATTTGTT (site GGGAATACTAA)	1.29
GGGAATCCATGGACCGGTTTTCCCGGTAATCCGTATTTGAA (site GGAAATCCTTT)	0.0039
GGGAATCCATGGACCGGTTTTCCCGGTAATCCGTATTTGAA (site GGCAATCCTTT)	0.00362
GGGAATCCATGGACCGGTTTTCCCGGTAATCCGTATTTGAA (site GGGAATCCTTT)	0.808
GGGAATCCATGGACCGGTTTTCCCGGTAATCCGTATTTGAA (site GGTAATCCTTT)	0.0108
GGGACATCATGGACCGGTTTTCCCGGTAATCCGTATTTGCT (site AGGACATCTAG)	0
GGGACATCATGGACCGGTTTTCCCGGTAATCCGTATTTGCT (site CGGACATCTAG)	0
GGGACATCATGGACCGGTTTTCCCGGTAATCCGTATTTGCT (site GGGACATCTAG)	1.43
GGGACATCATGGACCGGTTTTCCCGGTAATCCGTATTTGCT (site TGGACATCTAG)	0
GGGACTACATGGACCGGTTTTCCCGGTAATCCGTATTTGCA (site GGGACTACTTG)	1.67
GGGACTTCATGGACCGGTTTTCCCGGTAATCCGTATTTGTG (site GGGACTTCTCA)	0.746
GGGATCGCATGGACCGGTTTTCCCGGTAATCCGTATTTGCT (site GGGATCGCTAG)	3.09

Sequence	recombinant UMI read abundance (log10)
GGGATGACATGGACCGGTTTTCCCGGTAATCCGTATTTGAG (site GGGATGACTCT)	1.86
GGGATGCCATGGACCGGTTTTCCCGGTAATCCGTATTTGGC (site GGGATGCCTGC)	0
GGGCAACCATGGACCGGTTTTCCCGGTAATCCGTATTTGCG (site GGGCAACCTCG)	0
GGGCAGACATGGACCGGTTTTCCCGGTAATCCGTATTTGCA (site AGGAAGACTTG)	0.0416
GGGCAGACATGGACCGGTTTTCCCGGTAATCCGTATTTGCA (site GGGCAGACTTG)	2.58
GGGGAACCATGGACCGGTTTTCCCGGTAATCCGTATTTGCA (site GGGGAACCTTG)	0
GGGGAACCATGGACCGGTTTTCCCGGTAATCCGTATTTGCA (site GGGGCACCTTG)	0
GGGGAACCATGGACCGGTTTTCCCGGTAATCCGTATTTGCA (site GGGGGACCTTG)	0
GGGGAACCATGGACCGGTTTTCCCGGTAATCCGTATTTGCA (site GGGGTACCTTG)	0
GGGGAATCATGGACCGGTTTTCCCGGTAATCCGTATTTGGG (site GGGGAATCTCC)	0.39
GGGGCAACATGGACCGGTTTTCCCGGTAATCCGTATTTGTC (site GGGGCAACTGA)	1.94
GGGGTAACATGGACCGGTTTTCCCGGTAATCCGTATTTGGG (site GGGGTAACTCC)	0.597
GGGGTTGCATGGACCGGTTTTCCCGGTAATCCGTATTTGCG (site GGGGTTGCTCG)	1.75
GGGTACACATGGACCGGTTTTCCCGGTAATCCGTATTTGGC (site GGGTACACTGC)	3.08
GGGTCGGCATGGACCGGTTTTCCCGGTAATCCGTATTTGGC (site GGGTCGGCTGC)	2.18
GGGTGTTCATGGACCGGTTTTCCCGGTAATCCGTATTTGTT (site GGGTGTTCTAA)	1.1
GGGTTGACATGGACCGGTTTTCCCGGTAATCCGTATTTGAA (site GGGTTGACTTT)	0.979
GGTAAGTCATGGACCGGTTTTCCCGGTAATCCGTATTTGTT (site GGTAAGTCTAA)	1.98
GGTAAGTCATGGACCGGTTTTCCCGGTAATCCGTATTTGTT (site GGTACGTCTAA)	0.00407
GGTAAGTCATGGACCGGTTTTCCCGGTAATCCGTATTTGTT (site GGTAGGTCTAA)	0.00944
GGTAAGTCATGGACCGGTTTTCCCGGTAATCCGTATTTGTT (site GGTATGTCTAA)	0.00986
GGTAATCCATGGACCGGTTTTCCCGGTAATCCGTATTTGAA (site GGAAATCCTTT)	0.00275
GGTAATCCATGGACCGGTTTTCCCGGTAATCCGTATTTGAA (site GGCAATCCTTT)	0.58
GGTAATCCATGGACCGGTTTTCCCGGTAATCCGTATTTGAA (site GGGAATCCTTT)	0.00622
GGTAATCCATGGACCGGTTTTCCCGGTAATCCGTATTTGAA (site GGTAATCCTTT)	0.27
